According to ChEMBL document CHEMBL4342418, “1,2,3-Triazole-containing hybrids as potential anticancer agents: Current developments, action mechanisms and structure-activity relationships” (Eur J Med Chem, 2019):
In brackets after ≈: the same amount, converted by molar mass. Values belong to the compound of their own block, whether it stands above or below them.

Columns and labels:
MCF7 [1] = test: Antiproliferative activity against human MCF7 cells assessed as reduction in cell viability after 72 hrs by MTT assay; assay type: functional, cell-based; conditions: MCF7, 72 h
T47D [2] = test: Antiproliferative activity against human T47D cells assessed as reduction in cell viability after 72 hrs by MTT assay; assay type: functional, cell-based
KG-1a = test: Antiproliferative activity against human KG1a cells assessed as reduction in cell viability after 72 hrs by MTT assay; assay type: functional, cell-based
SUM-159-PT = test: Antiproliferative activity against human SUM159 cells assessed as reduction in cell viability after 72 hrs by MTT assay; assay type: functional, cell-based
SK-BR-3 = test: Antiproliferative activity against human SKBR3 cells assessed as reduction in cell viability after 72 hrs by MTT assay; assay type: functional, cell-based; conditions: SK-BR-3, 72 h
HT-29 = test: Antiproliferative activity against human HT-29 cells assessed as reduction in cell viability after 72 hrs by MTT assay; assay type: functional, cell-based; conditions: HT-29, 72 h
MDA-MB-231 [3] = test: Antiproliferative activity against human MDA-MB-231 cells by SRB assay; assay type: functional
HepG2 [4] = test: Antiproliferative activity against human HepG2 cells by SRB assay; assay type: functional, cell-based
DU-145 = test: Antiproliferative activity against human DU145 cells by SRB assay; assay type: functional, cell-based
HeLa = test: Antiproliferative activity against human HeLa cells by SRB assay; assay type: functional, cell-based
MCF7 [5] = test: Antiproliferative activity against human MCF7 cells assessed as reduction in cell viability after 48 hrs by MTT assay; assay type: functional, cell-based; conditions: MCF7, 48 h
HCT-116 [6] = test: Antiproliferative activity against human HCT116 cells assessed as reduction in cell viability after 48 hrs by MTT assay; assay type: functional, cell-based; conditions: HCT-116, 48 h
C2C12 = test: Cytotoxicity against mouse C2C12 cells assessed as reduction in cell viability after 48 hrs by MTT assay; assay type: cell-based; conditions: C2C12, 48 h
MCF7 [7] = test: cells; assay type: functional, cell-based; conditions: Homo sapiens
Description: Antiproliferative activity against human MCF7 cells by MTT assay

MDA-MB-231 [8] = test: Antiproliferative activity against human MDA-MB-231 cells by MTT assay; assay type: functional, cell-based
MCF-10A = test: Cytotoxicity against human MCF10A cells by MTT assay; assay type: cell-based
HepG2 [9] = test: Antiproliferative activity against human HepG2 cells by MTT assay; assay type: functional, cell-based
SK-N-SH = test: Antiproliferative activity against human SK-N-SH cells by MTT assay; assay type: functional, cell-based
MGC-803 = test: Antiproliferative activity against human MGC803 cells by MTT assay; assay type: functional, cell-based
HCT-116 [10] = test: Antiproliferative activity against human HCT116 cells by MTT assay; assay type: functional, cell-based
COLO 205 = test: Antiproliferative activity against human COLO205 cells assessed as reduction in cell viability after 24 hrs by MTT assay; assay type: functional, cell-based; conditions: COLO 205, 24 h
PC-3 = test: Antiproliferative activity against human PC3 cells assessed as reduction in cell viability after 24 hrs by MTT assay; assay type: functional, cell-based; conditions: PC-3, 24 h
P388 = test: Antiproliferative activity against mouse P388 cells by MTT assay; assay type: functional, cell-based
K562 = test: Antiproliferative activity against human K562 cells assessed as reduction in cell viability after 24 hrs by MTT assay; assay type: functional, cell-based; conditions: K562, 24 h
A549 [11] = test: Antiproliferative activity against human A549 cells assessed as reduction in cell viability after 24 hrs by MTT assay; assay type: functional, cell-based; conditions: A549, 24 h
MDA-MB-231 [12] = test: Antiproliferative activity against human MDA-MB-231 cells assessed as reduction in cell viability after 24 hrs by MTT assay; assay type: functional, cell-based; conditions: MDA-MB-231, 24 h
HL-60 = test: Antiproliferative activity against human HL60 cells by MTT assay; assay type: functional, cell-based
KB = test: Antiproliferative activity against human KB cells by MTT assay; assay type: functional, cell-based
Lu1 = test: Antiproliferative activity against human Lu1 cells by MTT assay; assay type: functional, cell-based
A-431 = test: Antiproliferative activity against human A431 cells assessed as reduction in cell viability after 24 hrs by MTT assay; assay type: functional, cell-based; conditions: A-431, 24 h
SW480 = test: Antiproliferative activity against human SW480 cells assessed as reduction in cell viability after 48 hrs by MTT assay; assay type: functional, cell-based; conditions: SW480, 48 h
[13] = Antiproliferative activity against human SMCC7721 cells assessed as reduction in cell viability after 48 hrs by MTT assay; assay type: functional, cell-based
A549 [14] = test: Antiproliferative activity against human A549 cells assessed as reduction in cell viability after 48 hrs by MTT assay; assay type: functional, cell-based; conditions: A549, 48 h
A549 [15] = test: Antiproliferative activity against human A549 cells by SRB assay; assay type: functional, cell-based
T47D [16] = test: Antiproliferative activity against human T47D cells assessed as reduction in cell viability after 48 hrs by MTT assay; assay type: functional, cell-based
Caco-2 = test: Antiproliferative activity against human Caco2 cells assessed as reduction in cell viability after 48 hrs by MTT assay; assay type: functional, cell-based; conditions: Caco-2, 48 h

GI50 (MCF7 [1]): 27.7 to 85.7 µg/mL (≈ 71.1 to 220 µM)
GI50 (T47D [2]): 27.7 to 85.7 µg/mL (≈ 71.1 to 220 µM)
SMILES: COc1ccc(Cn2cc(CNC(=O)c3cc(-c4ccccc4)on3)nn2)cc1

IC50 (SK-BR-3): 9.76 to 20.1 µM
SMILES: CS(=O)(=O)CCNCc1ccc(-c2ccc3ncnc(Nc4ccc(OCc5cccc(F)c5)c(Cl)c4)c3c2)o1 [LAPATINIB]
IC50 (KG-1a): 9.76 to 20.1 µM
IC50 (SUM-159-PT): 9.76 to 20.1 µM

IC50 (HT-29): 5.29 µM
IC50 (MCF7 [1]): 43.3 µM
SMILES: CNC(=O)c1cc(Oc2ccc(NC(=O)Nc3ccc(Cl)c(C(F)(F)F)c3)cc2)ccn1 [SORAFENIB]

SMILES: Cc1ccc(-c2nn(Cc3cn(Cc4ccccc4F)nn3)c(=O)o2)cc1
GI50 (MDA-MB-231 [3]): 0.82 to 2.39 µM
GI50 (HepG2 [4]): 0.82 to 2.39 µM
GI50 (DU-145): 0.82 to 2.39 µM
GI50 (HeLa): 0.82 to 2.39 µM

IC50 (MCF7 [5]): 14.4 µM
IC50 (HCT-116 [6]): 15.1 µM
SMILES: CN(C)CCCOc1cc(C(=O)NCc2cn(-c3ccc(NC(=O)[C@@H]4CCCN4)cc3)nn2)nc(C(=O)NCc2cn(-c3ccc(NC(=O)[C@H]4CCCN4)cc3)nn2)c1
IC50 (C2C12): > 40 µM

IC50 (MCF7 [7]): 6.8 to 27.6 µM
IC50 (MDA-MB-231 [8]): 6.8 to 27.6 µM
SMILES: Cc1c(C(F)(F)F)cc(Cl)c(Cl)c1-n1nnc(-c2nn(-c3nncc4ccccc34)cc2C=O)c1C
IC50 (MCF-10A): 21.9 to 25.3 µM

IC50 (HepG2 [9]): 1.52 to 10.4 µM
IC50 (SK-N-SH): 1.52 to 10.4 µM
IC50 (MGC-803): 1.52 to 10.4 µM
SMILES: COc1cc(/C=C/C(=O)c2ccc(OCCCn3cc(CSC4=NCCS4)nn3)cc2)cc(OC)c1OC

IC50 (HCT-116 [10]): > 100 µg/mL
IC50 (HepG2 [9]): > 100 µg/mL
IC50 (MCF7 [7]): 3.46 µg/mL
SMILES: CNC(=S)N1N=C(c2nnn(-c3ccc(-n4nnc(C5=NN(C(=S)NC)C(c6ccccc6)C5)c4C)cc3)c2C)CC1c1ccccc1 (stereo not given)

IC50 (COLO 205): 42.4 to 52.6 µM
IC50 (HepG2 [9]): 63.7 µM
IC50 (MCF7 [7]): 39.9 to 84.3 µM
IC50 (PC-3): 42.4 to 52.6 µM
IC50 (P388): 39.9 to 84.3 µM
IC50 (K562): 42.4 to 52.6 µM
IC50 (A549 [11]): 42.4 to 52.6 µM
IC50 (MDA-MB-231 [12]): 42.4 to 52.6 µM
IC50 (HL-60): 39.9 to 84.3 µM
IC50 (KB): 95.3 µM
IC50 (A-431): 42.4 to 52.6 µM
SMILES: C[C@H]1[C@@H](O)O[C@@H]2O[C@@]3(C)CC[C@H]4[C@H](C)CC[C@@H]1[C@@]24OO3 [ARTENIMOL]
IC50 (Lu1): 39.9 to 84.3 µM

IC50 (SW480): 0.67 to 7.41 µM
IC50 (MCF7 [5]): 0.67 to 7.41 µM
IC50 (A549 [14]): 0.67 to 7.41 µM
SMILES: COc1cc([C@@H]2c3cc4c(cc3[C@H](n3cc(CO[C@@H]5O[C@H](CO[C@@H]6O[C@H](CO)[C@@H](O)[C@H](O)[C@H]6O)[C@@H](O)[C@H](O)[C@H]5O)nn3)[C@H]3COC(=O)[C@H]23)OCO4)cc(OC)c1OC
IC50 [13]: 0.67 to 7.41 µM

IC50 (SK-BR-3): 2.06 to 7.47 µM
SMILES: Fc1cccc(COc2ccc(Nc3ncnc4ccc(-n5cc(CN6CCCC6)nn5)cc34)cc2Cl)c1
IC50 (KG-1a): 2.06 to 7.47 µM
IC50 (SUM-159-PT): 2.06 to 7.47 µM

IC50 (SK-BR-3): 2.06 to 7.47 µM
SMILES: Fc1cccc(COc2ccc(Nc3ncnc4ccc(-n5cc(CNC6CCN(Cc7cccnc7)CC6)nn5)cc34)cc2Cl)c1
IC50 (KG-1a): 2.06 to 7.47 µM
IC50 (SUM-159-PT): 2.06 to 7.47 µM

GI50 (HepG2 [4]): 1.3 to 8.2 µM
GI50 (DU-145): 1.3 to 8.2 µM
GI50 (HeLa): 1.3 to 8.2 µM
GI50 (A549 [15]): 1.3 to 8.2 µM
SMILES: COc1ccc(/C=C/C(=O)c2cc(OC)c(OC)c(OC)c2)cc1OCc1cn(Cc2ccc(F)cc2)nn1

SMILES: CN(C)CCOc1ccc(/C(=C(/CCCl)c2ccccc2)c2ccccc2)cc1 [TOREMIFENE]
IC50 (MCF7 [7]): 7 µM
IC50 (MDA-MB-231 [8]): 13 µM
IC50 (MCF-10A): > 100 µM

IC50 (MCF7 [5]): 33 to 154 µM
IC50 (T47D [16]): 33 to 154 µM
IC50 (HCT-116 [6]): 33 to 154 µM
IC50 (Caco-2): 33 to 154 µM
SMILES: CCOC(=O)c1cn(CC(=O)N2CCN(c3nc4ccccc4s3)CC2)nn1

IC50 (MCF7 [5]): 33 to 154 µM
IC50 (T47D [16]): 33 to 154 µM
IC50 (HCT-116 [6]): 33 to 154 µM
IC50 (Caco-2): 33 to 154 µM
SMILES: O=C(Cn1cc(C(O)(c2ccccc2)c2ccccc2)nn1)N1CCN(c2nc3ccccc3s2)CC1

IC50 (MCF7 [5]): 33 to 48 µM
IC50 (T47D [16]): 33 to 48 µM
IC50 (HCT-116 [6]): 33 to 48 µM
IC50 (Caco-2): 33 to 48 µM
SMILES: O=C(Cn1cc(CCCO)nn1)N1CCN(c2nc3ccccc3s2)CC1

IC50 (HCT-116 [10]): > 100 µg/mL
IC50 (HepG2 [9]): > 100 µg/mL
IC50 (MCF7 [7]): 66.8 µg/mL
SMILES: CC(=O)N1N=C(c2nnn(-c3ccc(-n4nnc(C5=NN(C(C)=O)C(c6ccccc6)C5)c4C)cc3)c2C)CC1c1ccccc1 (stereo not given)

IC50 (MCF7 [5]): 1.7 µM
IC50 (HCT-116 [6]): 1.3 µM
SMILES: CN(C)CCCOc1cc(C(=O)NCc2cn(-c3cccc(NC(=O)[C@@H]4CCCN4)c3)nn2)nc(C(=O)NCc2cn(-c3cccc(NC(=O)[C@H]4CCCN4)c3)nn2)c1
IC50 (C2C12): > 40 µM
